Laboratory results taken from ChEMBL document CHEMBL1201862, “PubChem BioAssay data set” (2004).
Activity calls are given as the source filed them.

Columns and labels:
[1] = A High Throughput Confirmatory Assay used to Identify Novel Compounds that Inhibit Mycobacterium Tuberculosis in the absence of Glycerol.; assay type: functional
[2] = microbe, parasite or virus in culture; assay type: functional; details: Mycobacterium tuberculosis
[3] = target: T1, Short transient receptor potential channel 4 (Mus musculus, UniProt Q9QUQ5); experiment: mouse TRPC4 channel inhibitors, dose response, cell-based, HEK293 TRPC4/mu-opioid, Fluo-4 calcium (AID 434942); assay type: functional;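 further: potency of inhibitors blocking the TRPC4 calcium response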
T1 sequence (Q9QUQ5 whole entry): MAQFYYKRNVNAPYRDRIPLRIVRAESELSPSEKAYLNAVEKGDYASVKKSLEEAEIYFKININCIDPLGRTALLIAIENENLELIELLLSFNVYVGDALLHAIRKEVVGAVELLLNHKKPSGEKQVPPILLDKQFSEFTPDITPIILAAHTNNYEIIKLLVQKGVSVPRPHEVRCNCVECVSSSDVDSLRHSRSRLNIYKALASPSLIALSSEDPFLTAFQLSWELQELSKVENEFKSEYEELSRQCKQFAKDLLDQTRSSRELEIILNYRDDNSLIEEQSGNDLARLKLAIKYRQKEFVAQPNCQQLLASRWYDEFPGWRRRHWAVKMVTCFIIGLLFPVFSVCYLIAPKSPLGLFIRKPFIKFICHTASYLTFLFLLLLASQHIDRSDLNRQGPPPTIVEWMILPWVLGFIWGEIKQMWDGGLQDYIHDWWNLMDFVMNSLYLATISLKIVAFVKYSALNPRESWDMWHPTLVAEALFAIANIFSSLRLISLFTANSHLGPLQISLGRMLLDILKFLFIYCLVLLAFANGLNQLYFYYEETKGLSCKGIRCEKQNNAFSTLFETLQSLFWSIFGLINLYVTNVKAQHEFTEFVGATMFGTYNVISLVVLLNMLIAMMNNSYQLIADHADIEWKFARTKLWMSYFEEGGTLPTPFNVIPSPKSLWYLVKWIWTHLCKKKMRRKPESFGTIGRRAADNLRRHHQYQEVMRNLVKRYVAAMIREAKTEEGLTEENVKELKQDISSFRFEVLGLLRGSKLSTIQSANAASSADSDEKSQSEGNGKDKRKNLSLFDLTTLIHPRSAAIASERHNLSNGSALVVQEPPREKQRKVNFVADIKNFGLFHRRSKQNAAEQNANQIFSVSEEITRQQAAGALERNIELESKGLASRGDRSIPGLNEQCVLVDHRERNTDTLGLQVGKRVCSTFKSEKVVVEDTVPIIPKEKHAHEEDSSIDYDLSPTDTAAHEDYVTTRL

[4] = target: Peroxisome proliferator-activated receptor gamma/Nuclear receptor coactivator 3 (Homo sapiens, UniProt P37231); assay type: functional;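 further: agonist potency for raising coactivator recruitment to the receptor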
[5] = target: Peroxisome proliferator-activated receptor gamma/Nuclear receptor coactivator 1 (Homo sapiens, UniProt P37231); assay type: functional;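 further: agonist potency as compounds enhance coactivator SRC-1 recruitment to PPARgamma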
[6] = target: Peroxisome proliferator-activated receptor gamma/Nuclear receptor coactivator 2 (Homo sapiens, UniProt P37231); assay type: functional;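 further: agonist potency for raising coactivator recruitment to the receptor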
Protein RecA = target: T2, Protein RecA (Mycobacterium tuberculosis, UniProt P9WHJ3); experiment: Fluorescence Cell-Free Homogeneous Dose Retest to Identify Inhibitors of RecA-Intein Splicing Activity. [Related pubchem assays (depositor defined):AID2097, AID2223, AID489010, AID492950]; assay type: functional
T2 sequence (P9WHJ3 whole entry): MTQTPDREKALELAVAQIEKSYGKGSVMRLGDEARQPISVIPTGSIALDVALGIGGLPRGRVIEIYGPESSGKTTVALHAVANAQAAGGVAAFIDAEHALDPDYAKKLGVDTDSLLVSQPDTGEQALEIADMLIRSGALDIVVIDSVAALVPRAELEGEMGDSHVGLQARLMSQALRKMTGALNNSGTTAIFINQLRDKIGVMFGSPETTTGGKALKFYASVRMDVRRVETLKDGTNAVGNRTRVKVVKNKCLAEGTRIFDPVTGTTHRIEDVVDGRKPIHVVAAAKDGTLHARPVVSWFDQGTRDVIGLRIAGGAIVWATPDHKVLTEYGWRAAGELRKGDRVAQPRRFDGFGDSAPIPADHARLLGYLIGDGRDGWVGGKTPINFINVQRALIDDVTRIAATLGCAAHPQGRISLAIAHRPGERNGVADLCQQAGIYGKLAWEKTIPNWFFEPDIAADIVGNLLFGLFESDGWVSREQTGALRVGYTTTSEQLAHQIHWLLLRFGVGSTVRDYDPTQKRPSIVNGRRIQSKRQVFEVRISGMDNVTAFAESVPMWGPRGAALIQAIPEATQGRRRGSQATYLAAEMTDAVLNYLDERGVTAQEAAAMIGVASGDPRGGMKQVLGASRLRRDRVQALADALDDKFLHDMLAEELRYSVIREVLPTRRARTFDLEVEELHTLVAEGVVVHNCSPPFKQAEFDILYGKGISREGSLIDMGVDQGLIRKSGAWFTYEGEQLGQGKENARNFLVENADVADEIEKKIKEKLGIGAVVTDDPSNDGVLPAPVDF

[7] = target: T3, Replicative DNA helicase DnaB (Mycobacterium tuberculosis, UniProt P9WMR3); experiment: DnaB intein splicing inhibitors, dose response, biochemical, cell-free fluorescence (AID 449749); assay type: functional
T3 sequence (P9WMR3 whole entry): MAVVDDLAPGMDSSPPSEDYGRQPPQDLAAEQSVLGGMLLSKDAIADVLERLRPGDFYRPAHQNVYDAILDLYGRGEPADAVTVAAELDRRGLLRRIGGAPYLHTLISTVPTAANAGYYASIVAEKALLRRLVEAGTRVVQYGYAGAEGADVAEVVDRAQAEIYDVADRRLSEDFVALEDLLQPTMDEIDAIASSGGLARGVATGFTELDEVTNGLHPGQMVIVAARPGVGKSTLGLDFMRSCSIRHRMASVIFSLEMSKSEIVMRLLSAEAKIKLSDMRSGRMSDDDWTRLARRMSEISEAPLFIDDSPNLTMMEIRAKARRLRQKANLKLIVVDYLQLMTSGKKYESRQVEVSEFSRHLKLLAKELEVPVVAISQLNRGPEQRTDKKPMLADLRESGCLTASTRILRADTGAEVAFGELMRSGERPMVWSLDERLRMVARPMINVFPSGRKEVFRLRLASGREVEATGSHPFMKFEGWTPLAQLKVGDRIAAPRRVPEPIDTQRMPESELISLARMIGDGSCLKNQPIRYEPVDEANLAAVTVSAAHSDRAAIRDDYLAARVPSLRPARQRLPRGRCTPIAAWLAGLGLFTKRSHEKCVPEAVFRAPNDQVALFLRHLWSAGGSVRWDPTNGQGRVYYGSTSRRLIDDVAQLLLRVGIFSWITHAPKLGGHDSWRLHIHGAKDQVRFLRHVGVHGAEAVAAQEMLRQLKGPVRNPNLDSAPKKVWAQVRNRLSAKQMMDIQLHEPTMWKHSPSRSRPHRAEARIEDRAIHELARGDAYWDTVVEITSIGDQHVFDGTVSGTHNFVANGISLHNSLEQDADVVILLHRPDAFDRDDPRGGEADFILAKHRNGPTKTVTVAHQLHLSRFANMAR

[8] = cytotoxicity in HPDE-C7 cells, cell-based, fluorescence, HTS (AID 430); assay type: functional; details: Homo sapiens
[9] = cytotoxicity in KRAS-transformed pancreatic duct cells, primary screen, cell-based, fluorescence, HTS (AID 431); assay type: functional; details: Homo sapiens;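 further: cell line used: HPDE-C7K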
[10] = target: T4, Heat shock factor protein 1 (Mus musculus, UniProt P38532); experiment: HSF1 potentiators in luciferase reporter cells, confirmation, cell-based, NIH3T3, luminescence, dose retest (AID 435004); assay type: functional;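 further: stress induced by proteasome inhibitor MG132 added 30 min after compound; luciferase reporter driven by HSF1 response element in NIH3T3 cells; actives raise luminescence as potentiators of the MG132 stress response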
T4 sequence (P38532 whole entry): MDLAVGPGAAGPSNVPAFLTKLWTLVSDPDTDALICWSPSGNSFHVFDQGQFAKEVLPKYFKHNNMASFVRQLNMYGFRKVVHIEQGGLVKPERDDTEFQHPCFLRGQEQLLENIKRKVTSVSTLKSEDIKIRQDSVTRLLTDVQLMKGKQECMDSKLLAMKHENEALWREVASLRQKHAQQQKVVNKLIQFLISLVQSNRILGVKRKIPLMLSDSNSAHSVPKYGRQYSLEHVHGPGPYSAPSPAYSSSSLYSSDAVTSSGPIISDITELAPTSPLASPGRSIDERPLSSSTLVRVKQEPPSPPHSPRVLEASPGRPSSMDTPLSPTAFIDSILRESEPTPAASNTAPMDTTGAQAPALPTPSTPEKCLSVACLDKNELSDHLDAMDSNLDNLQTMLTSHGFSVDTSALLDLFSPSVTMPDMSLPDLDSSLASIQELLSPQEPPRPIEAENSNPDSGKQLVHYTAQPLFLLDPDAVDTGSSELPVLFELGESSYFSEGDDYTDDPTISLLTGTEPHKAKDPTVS

Mucolipin-3 = target: T5, Mucolipin-3 (Homo sapiens, UniProt Q8TDD5); experiment: Dose response cell-based high-throughput screening assay for agonists of the transient receptor potential channel ML3 (TRPML3). [Related pubchem assays: 1526, 1424, 1448 ]; assay type: functional
T5 sequence (Q8TDD5 whole entry): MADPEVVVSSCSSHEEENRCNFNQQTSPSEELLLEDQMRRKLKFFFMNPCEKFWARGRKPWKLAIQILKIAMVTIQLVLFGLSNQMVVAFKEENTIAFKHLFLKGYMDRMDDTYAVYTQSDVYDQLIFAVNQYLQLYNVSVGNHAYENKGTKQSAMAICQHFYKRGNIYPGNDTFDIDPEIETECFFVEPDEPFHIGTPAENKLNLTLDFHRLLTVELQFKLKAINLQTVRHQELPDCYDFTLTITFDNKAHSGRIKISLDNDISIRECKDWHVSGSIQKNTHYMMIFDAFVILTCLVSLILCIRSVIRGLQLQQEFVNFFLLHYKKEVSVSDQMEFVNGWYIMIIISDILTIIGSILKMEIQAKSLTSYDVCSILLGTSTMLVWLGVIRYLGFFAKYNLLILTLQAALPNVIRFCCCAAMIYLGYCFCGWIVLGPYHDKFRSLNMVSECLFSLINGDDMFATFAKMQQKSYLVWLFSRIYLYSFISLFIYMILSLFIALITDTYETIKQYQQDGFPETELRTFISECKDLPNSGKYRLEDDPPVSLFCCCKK

Ion channel NompC = Ion channel NompC (Danio rerio, UniProt Q7T1G6); experiment: Fluorescence counterscreen assay for TRPML3 agonists: dose response cell-based high-throughput screening assay to identify agonists of the transient receptor potential channel N1 (TRPN1). [Related pubchem assays: 1526, 1424, 1448 ]; assay type: functional
Cytochrome P450 1A2 = target: T6, Cytochrome P450 1A2 (Homo sapiens, UniProt P05177);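 further: PubChem cytochrome P450 panel assay, CYP1A2 panel member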
T6 sequence (P05177 whole entry): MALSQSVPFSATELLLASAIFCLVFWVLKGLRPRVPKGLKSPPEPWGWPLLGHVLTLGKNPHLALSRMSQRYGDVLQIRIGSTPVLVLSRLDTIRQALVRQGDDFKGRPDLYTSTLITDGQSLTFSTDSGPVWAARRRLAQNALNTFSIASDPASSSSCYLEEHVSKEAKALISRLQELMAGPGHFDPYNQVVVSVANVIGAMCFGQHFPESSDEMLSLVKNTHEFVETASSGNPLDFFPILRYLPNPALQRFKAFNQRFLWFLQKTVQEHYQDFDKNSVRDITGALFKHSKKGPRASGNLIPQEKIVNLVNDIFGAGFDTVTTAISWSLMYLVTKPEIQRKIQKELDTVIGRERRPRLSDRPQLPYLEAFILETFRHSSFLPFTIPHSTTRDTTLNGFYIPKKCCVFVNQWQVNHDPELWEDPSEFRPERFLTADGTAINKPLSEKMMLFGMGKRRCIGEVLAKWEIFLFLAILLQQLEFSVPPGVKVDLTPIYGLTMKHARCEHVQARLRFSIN

[11] = HEp-2 cell cytotoxicity, dose response, cytotoxicity control for RSV inhibitor project, HTS (AID 2410); assay type: functional; details: human respiratory syncytial virus
[12] = A Cell Based Secondary Assay To Explore Cytotoxicity of Compounds that Sensitize Mycobacterium Tuberculosis to Beta-Lactam Antibiotics.; assay type: functional
[13] = insulin promoter down-regulators in MIN6 cells, imaging, high-content screening, mouse beta cells (AID 1628); assay type: functional
[14] = cytotoxicity in MIN6 insulinoma cells, dose response, cytotoxicity control, cell-based, mouse insulinoma (AID 2122); assay type: functional;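 further: confirmatory high-throughput counterscreen run to flag cytotoxic compounds; mouse MIN-6 beta cells carrying an insulin promoter eGFP reporter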
[15] = target: T7, Polyadenylate-binding protein 1 (Homo sapiens, UniProt P11940); experiment: PABP1 MLLE–PAM2 binding inhibitor potency, dose response, biochemical, fluorescence polarization, FITC-PAM2 peptide (AID 602259); assay type: functional; details: read-out: IC50_Mean
[16] = target: T7, Polyadenylate-binding protein 1; experiment: PABP1 MLLE–PAM2 interaction inhibitors, dose response, miRNA deadenylation inhibitor project, biochemical, fluorescence polarization, Cy5-PAM2 peptide, secondary (AID 602260); assay type: functional; details: read-out: IC50_Mean

Sequence of Peroxisome proliferator-activated receptor gamma/Nuclear receptor coactivator 1 (P37231 whole entry): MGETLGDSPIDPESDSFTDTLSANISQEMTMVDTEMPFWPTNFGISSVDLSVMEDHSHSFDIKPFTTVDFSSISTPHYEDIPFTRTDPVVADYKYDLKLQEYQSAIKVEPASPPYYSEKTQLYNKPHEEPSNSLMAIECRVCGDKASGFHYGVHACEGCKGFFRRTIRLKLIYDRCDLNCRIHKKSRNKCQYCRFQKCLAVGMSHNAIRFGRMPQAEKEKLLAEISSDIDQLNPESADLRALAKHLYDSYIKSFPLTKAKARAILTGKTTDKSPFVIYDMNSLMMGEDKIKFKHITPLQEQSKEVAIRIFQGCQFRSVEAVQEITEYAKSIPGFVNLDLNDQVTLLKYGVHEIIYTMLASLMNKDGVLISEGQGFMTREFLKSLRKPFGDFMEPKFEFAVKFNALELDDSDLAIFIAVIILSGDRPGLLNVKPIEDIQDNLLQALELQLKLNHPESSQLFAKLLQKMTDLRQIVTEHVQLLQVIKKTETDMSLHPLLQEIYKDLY
Sequence of Peroxisome proliferator-activated receptor gamma/Nuclear receptor coactivator 1 (Q15788 whole entry, further chain): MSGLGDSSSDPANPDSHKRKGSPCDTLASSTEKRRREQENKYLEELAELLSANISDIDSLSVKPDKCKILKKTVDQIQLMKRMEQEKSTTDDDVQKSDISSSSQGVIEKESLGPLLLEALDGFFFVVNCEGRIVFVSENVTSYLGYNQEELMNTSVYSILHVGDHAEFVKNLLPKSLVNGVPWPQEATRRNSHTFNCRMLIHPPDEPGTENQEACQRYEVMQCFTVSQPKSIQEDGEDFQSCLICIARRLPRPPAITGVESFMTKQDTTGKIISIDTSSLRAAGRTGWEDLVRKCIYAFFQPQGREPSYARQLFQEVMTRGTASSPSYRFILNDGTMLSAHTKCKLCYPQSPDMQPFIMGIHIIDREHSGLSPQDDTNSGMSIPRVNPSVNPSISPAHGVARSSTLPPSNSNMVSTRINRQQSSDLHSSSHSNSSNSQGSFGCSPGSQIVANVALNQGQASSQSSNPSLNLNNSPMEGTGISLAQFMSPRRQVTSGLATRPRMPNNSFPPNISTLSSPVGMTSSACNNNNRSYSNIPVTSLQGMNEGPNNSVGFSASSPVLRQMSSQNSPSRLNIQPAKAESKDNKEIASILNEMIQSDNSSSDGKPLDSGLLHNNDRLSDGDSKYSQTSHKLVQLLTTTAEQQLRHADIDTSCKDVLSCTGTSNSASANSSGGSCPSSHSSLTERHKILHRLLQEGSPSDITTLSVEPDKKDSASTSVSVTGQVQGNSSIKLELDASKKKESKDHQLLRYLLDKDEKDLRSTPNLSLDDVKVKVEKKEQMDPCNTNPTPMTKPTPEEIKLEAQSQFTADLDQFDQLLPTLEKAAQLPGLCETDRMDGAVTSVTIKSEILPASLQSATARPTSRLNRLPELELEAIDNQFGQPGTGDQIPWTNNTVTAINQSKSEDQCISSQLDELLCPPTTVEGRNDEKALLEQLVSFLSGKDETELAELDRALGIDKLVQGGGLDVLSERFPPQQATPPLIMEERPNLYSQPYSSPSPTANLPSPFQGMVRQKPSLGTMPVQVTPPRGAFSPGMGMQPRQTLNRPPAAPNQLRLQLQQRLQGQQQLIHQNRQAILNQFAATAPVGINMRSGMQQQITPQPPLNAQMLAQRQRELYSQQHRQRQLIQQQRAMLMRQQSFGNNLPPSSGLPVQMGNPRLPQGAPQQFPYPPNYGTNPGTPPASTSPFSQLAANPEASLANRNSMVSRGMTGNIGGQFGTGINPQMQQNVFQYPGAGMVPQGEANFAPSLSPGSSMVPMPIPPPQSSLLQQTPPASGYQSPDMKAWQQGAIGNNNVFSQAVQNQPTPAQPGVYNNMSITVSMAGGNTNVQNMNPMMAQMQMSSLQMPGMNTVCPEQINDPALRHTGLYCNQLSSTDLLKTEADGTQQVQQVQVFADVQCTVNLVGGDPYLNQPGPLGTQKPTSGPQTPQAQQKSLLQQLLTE
Sequence of Peroxisome proliferator-activated receptor gamma/Nuclear receptor coactivator 2 (P37231 whole entry): as the sequence (P37231 whole entry) above
Sequence of Peroxisome proliferator-activated receptor gamma/Nuclear receptor coactivator 2 (Q15596 whole entry, further chain): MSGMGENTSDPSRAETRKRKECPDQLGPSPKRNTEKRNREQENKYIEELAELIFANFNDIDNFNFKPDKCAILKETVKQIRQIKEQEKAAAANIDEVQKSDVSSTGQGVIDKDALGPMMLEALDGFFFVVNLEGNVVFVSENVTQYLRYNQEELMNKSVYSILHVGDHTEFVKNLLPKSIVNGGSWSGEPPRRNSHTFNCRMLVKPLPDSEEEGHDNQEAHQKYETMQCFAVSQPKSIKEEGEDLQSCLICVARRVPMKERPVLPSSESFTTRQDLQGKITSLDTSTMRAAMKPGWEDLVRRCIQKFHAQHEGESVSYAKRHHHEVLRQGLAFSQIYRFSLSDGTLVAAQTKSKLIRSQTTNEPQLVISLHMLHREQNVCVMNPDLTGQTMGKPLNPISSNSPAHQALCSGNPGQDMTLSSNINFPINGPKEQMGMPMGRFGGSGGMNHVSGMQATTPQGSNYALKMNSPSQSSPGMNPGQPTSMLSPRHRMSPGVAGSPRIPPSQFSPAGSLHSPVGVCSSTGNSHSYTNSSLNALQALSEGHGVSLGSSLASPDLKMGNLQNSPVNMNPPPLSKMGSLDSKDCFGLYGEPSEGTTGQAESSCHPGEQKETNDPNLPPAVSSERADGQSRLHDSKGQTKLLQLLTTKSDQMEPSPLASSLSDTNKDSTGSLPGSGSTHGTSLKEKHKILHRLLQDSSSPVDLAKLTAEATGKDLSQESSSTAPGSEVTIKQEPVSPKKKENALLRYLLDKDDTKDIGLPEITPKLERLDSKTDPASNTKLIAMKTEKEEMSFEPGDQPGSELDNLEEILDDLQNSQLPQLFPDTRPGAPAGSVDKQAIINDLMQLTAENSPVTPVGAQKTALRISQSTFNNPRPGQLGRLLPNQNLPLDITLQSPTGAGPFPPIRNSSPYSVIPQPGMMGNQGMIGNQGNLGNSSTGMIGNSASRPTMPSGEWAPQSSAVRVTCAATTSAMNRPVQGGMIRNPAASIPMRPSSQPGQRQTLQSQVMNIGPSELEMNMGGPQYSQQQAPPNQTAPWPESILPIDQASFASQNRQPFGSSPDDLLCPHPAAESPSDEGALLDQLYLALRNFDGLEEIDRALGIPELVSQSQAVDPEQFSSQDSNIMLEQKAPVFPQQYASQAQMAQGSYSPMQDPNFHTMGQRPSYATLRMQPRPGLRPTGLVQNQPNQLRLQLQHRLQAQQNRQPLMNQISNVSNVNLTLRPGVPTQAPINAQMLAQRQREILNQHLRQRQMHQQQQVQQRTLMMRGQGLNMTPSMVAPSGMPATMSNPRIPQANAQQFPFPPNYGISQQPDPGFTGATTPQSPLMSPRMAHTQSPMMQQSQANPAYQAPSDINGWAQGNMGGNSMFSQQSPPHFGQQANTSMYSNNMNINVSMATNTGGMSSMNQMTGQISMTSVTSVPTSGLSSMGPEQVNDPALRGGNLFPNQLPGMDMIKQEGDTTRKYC
T7 sequence (P11940 whole entry): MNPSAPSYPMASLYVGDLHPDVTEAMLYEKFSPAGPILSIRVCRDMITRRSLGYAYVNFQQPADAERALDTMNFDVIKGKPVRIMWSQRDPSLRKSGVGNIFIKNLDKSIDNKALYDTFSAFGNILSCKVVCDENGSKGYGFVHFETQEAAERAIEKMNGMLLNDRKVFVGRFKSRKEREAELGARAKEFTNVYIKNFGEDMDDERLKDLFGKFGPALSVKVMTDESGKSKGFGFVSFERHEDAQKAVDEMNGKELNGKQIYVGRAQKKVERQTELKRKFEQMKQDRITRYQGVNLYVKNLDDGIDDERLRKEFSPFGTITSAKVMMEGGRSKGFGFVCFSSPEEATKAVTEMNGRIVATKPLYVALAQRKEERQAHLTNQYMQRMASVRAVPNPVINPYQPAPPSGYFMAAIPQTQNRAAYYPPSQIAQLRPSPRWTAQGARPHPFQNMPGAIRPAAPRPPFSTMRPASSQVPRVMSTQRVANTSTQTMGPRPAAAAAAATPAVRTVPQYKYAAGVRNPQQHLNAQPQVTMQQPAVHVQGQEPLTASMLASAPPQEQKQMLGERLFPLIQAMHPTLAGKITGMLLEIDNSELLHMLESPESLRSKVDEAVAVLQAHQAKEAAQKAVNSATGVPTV

N#Cc1cccc2c1-c1ccccc1/C2=N/NC(N)=O
IC50 [1]: > 100 µM (active) | CC50 [2]: > 40 µM (active) | EC50 [3]: 0.0533 µM (active)

Cc1sc(-n2c(C)cc(/C=N/n3cnnc3)c2C)c(C#N)c1C
EC50 [4]: > 79.4 µM (not active) | EC50 [5]: > 79.4 µM (not active) | EC50 [6]: > 79.4 µM (not active)

COc1ccccc1-n1nnnc1S(=O)(=O)Cc1ccc(Cl)cc1
EC50 (Protein RecA): 1.94 µM (active) | AC50 [7]: 5.1 µM (active) | EC50 [8]: 6.84 µM (active) | EC50 [9]: 9.56 µM (active) | EC50 [10]: 17.3 µM (active)

O=S(=O)(C=C(c1ccccc1)c1ccccc1)c1ccccc1
EC50 (Mucolipin-3): 2.82 µM (active) | EC50 (Ion channel NompC): > 29.9 µM (not active) | AC50 (Cytochrome P450 1A2): 28.2 µM (inconclusive)

O=C(NC1=NCCS1)c1cc(-c2ccc(-c3ccccc3)cc2)nc2ccccc12
IC50 (cells): 21.7 µM (active) | CC50 [11]: 21.9 µM (active)

COc1ccc(-c2cc(-c3ccc(OC)cc3)[nH]n2)cc1
IC50 [1]: > 50 µM (active)

Cc1ccc(N2C(=O)C3CCC(c4ccccc4)CC3C2=O)cc1 (configuration not stated)
EC50 [4]: > 79.4 µM (not active) | EC50 [5]: > 79.4 µM (not active) | EC50 [6]: > 79.4 µM (not active)

Cc1nc(SCC(=O)Nc2ccc(F)cc2)c(C#N)c(C)c1CC(=O)c1ccc(Br)cc1
CC50 [12]: 9.4 µM (active) | EC50 [4]: 24.8 µM (not active) | EC50 [5]: 13.8 µM (not active) | EC50 [6]: 9.89 µM (active)

Cc1ccc(C(C)C)c(OCC(=O)Nc2ccccc2N2CCN(C)CC2)c1
EC50 [8]: > 20 µM (not active) | IC50 [13]: 2.58 µM (active) | EC50 [9]: > 20 µM (not active) | IC50 [14]: 6.82 µM (active)

CCOC(=O)CSc1nc2c(sc(=S)n2-c2ccccc2OC)c(=O)n1Cc1ccco1
EC50 (Mucolipin-3): 0.37 µM (active) | EC50 (Ion channel NompC): > 29.9 µM (not active) | IC50 [15]: > 66 µM (inactive) | IC50 [16]: > 66 µM (inactive)
